Experimental data from patent US20250109127A1, “METHODS OF USE OF PHENOXYPROPYLAMINE COMPOUNDS TO TREAT DEPRESSION” (Minerva Neurosciences, Inc., priority 2013, published 2025).
“And” between values parts separate entries of the source, which are not always exact repeats. Equal values may be shown once. Where a name gives a salt, the structure may show the parent alone.

Tested on: 5-HT release in the rat prefrontal cortex
Assay: Microdialysis: 5-HT release in prefrontal cortex after I.P. administration
Type: in vivo
Conditions: for 5-HT release, individual animals / 5-HT release, MEAN: 0.3 mg/kg I.P.; for 5-HT release, individual animals: one column per animal R#11,12,18,23,29,30,17,24, hydrochloride; for 5-HT release, MEAN / 5-HT release (% of basal levels) measured in dialysates, MEAN: n = 8; for serotonin levels, increase (not statistically significant): SON-117 0.1 mg/kg IP; for 5-HT release (% of basal levels) measured in dialysates, MEAN: SON-117 3 mg/kg IP
Experimental: The aim of the study was to evaluate, using microdialysis, the effects of an intraperitoneal (I.P.) administration in rats of three different doses of SON-117 on dopamine and its metabolites, serotonin and its metabolite (5-HIAA), and norepinephrine levels in prefrontal cortex.
Thirty-two adult male Wistar rats were used for the whole study (4 groups of eight animals planned for the study, Table 1).
Surgery was performed on rats weighing about 300 g at the beginning of the experiments. Rats were anaesthetized with Ketamine (50 mg/kg) & Xylazine (15 mg/kg) by intramuscular administration. The animals were placed in a stereotaxic apparatus in the flat-skull position at a constant setting of −3.3 mm between ear bars and the incisor bar. The animals were treated with a local anesthesic (xylocaine 1%, Astra Zeneca) and an analgesic (Temgesic, from Schering Plough, 0.05 mg/kg, s.c.). A rostrocaudal midline incision was made with a lancet to expose the dorsal skull surface. The “stereotaxic zero” was defined by the Bregma in accordance with Paxinos and Watson's atlas (1986). A hole was drilled in the skull with a drill and the meninges were pierced with a sterile needle to implant a CMA12 guide cannula which later received the dialysis probe.
Coordinates used for implanting guide cannula in prefrontal cortex from Bregma were anteroposterior 3.7 mm, mediolateral 0.8 mm, and dorsoventral −2 mm (top of the probe was at −5 mm). The guide cannula was fixed to the skull with two stainless steel screws (1.88 mm outside diameter) anchored. An application of dental cement was added. A plastic collar allowed each animal to be tethered to a Swivel assembly of the CMA 120 awake animal system. Following surgery, rats were kept in individual cages and allowed to recover for a minimum of 3-5 days before the experimentation. The rats were handled and put in plastic bowl for 10 min at least every day to habituate the animals to their new environment for the dialysis. An I.P. administration with saline was also performed every day.
Dialysis probes (CMA12/3 mm, membrane, 20 kD cut-off, Carnegie Medicine, Stockholm, Sweden), were carefully washed before inserting into the guide cannula. The wash was performed with the artificial cerebrospinal fluid (aCSF) medium (NaCl 147 mM, KCl 2.7 mM, CaCl2 1.2 mM, MgCl2 0.85 mM) at room temperature. The dialysis system was then equilibrated at 20° C. at a perfusion rate of 1 μl/min with a Carnegie pump (CMA100). All catheters (FEP tubing, internal volume of 1.2 μl/10 cm, and tubing adaptors) used for microdialysis were treated in the same conditions.
The probes duly prepared were inserted into the guide cannula and the CMA120 Swivel assembly secured to the animal using a plastic collar. Flow through the dialysis probe with aCSF was maintained at a rate of 1 μl/min during the whole experimentation. The first four fractions (corresponding to 2 hours) were discarded to avoid the effects of parenchymal disturbance and to ensure that an approximate steady-state level was reached. Fractions were then collected over a period of 8.5 h during which time the animals remained quiet. The dialysates were automatically collected with an autosampler (microfraction collector CMA 140, Carnegie Medicin) and stored at −80° C. until analysis. […] Perfusion was then maintained for 7 hours with aCSF. The dialysates (30 μl) were collected into 300 μl vials, transferred into dry ice and then kept frozen (−80° C.) until analysis. Frozen samples were shipped to a partner for analysis. At the end of the microdialysis study, a PBS with colored ink was perfused through the probe in order to visualize the dialyzed area.
Catecholamine assay: Concentrations of dopamine, DOPAC, HVA, 5-HIAA, 5-HT, and norepinephrin were determined for each sample by HPLC coupled with electrochemical detection. […]

Cc1nnc(-c2cc3c(OC[C@@H](O)CN4CCC(c5ccc(Cl)c(Cl)c5)CC4)cccc3o2)o1 [SON-117, (S)-1-(4-(3,4-dichlorophenyl)piperidino)-3-(2-(5-methyl-1,3,4-oxadiazol-2-yl)benzo(b)furan-4-yloxy)-2-propanol hydrochloride]
5-HT release, individual animals (T3 h 30-T4 h): 200.54 % of respective basal and 84.61 % of respective basal and 62.15 % of respective basal and 60.73 % of respective basal and 115.12 % of respective basal and 46.42 % of respective basal and 361.81 % of respective basal
5-HT release, MEAN (T3 h-T3 h 30): 112.03 % of respective basal
5-HT release, individual animals (T3 h-T3 h 30): 118.62 % of respective basal and 100.39 % of respective basal and 94.04 % of respective basal and 122.16 % of respective basal and 126.07 % of respective basal and 27.45 % of respective basal and 195.48 % of respective basal
5-HT release, MEAN (T4 h 30-T5 h): 105.19 % of respective basal
5-HT release, individual animals (T4 h 30-T5 h): 144.93 % of respective basal and 86.55 % of respective basal and 70.67 % of respective basal and 69.54 % of respective basal and 82.71 % of respective basal and 313.44 % of respective basal and 18.96 % of respective basal and 54.73 % of respective basal
5-HT release, MEAN (T4 h-T4 h 30): 80.14 % of respective basal
5-HT release, individual animals (T4 h-T4 h 30): 87.68 % of respective basal and 67.29 % of respective basal and 102.65 % of respective basal and 67.53 % of respective basal and 83.72 % of respective basal and 130.39 % of respective basal and 23.64 % of respective basal and 78.23 % of respective basal
5-HT release, MEAN (T5 h 30-T6 h): 106.06 % of respective basal
5-HT release, individual animals (T5 h 30-T6 h): 149.11 % of respective basal and 44.15 % of respective basal and 83.73 % of respective basal and 57.89 % of respective basal and 95.31 % of respective basal and 328.43 % of respective basal and 13.82 % of respective basal and 76.03 % of respective basal
5-HT release, MEAN (T5 h-T5 h 30): 100.56 % of respective basal
5-HT release, individual animals (T5 h-T5 h 30): 81.27 % of respective basal and 37.01 % of respective basal and 187.99 % of respective basal and 64.78 % of respective basal and 81.96 % of respective basal and 177.83 % of respective basal and 7.58 % of respective basal and 166.02 % of respective basal
5-HT release, MEAN (T6 h 30-T7 h): 103.94 % of respective basal
5-HT release, individual animals (T6 h 30-T7 h): 181.36 % of respective basal and 59.67 % of respective basal and 70.80 % of respective basal and 52.79 % of respective basal and 109.41 % of respective basal and 187.49 % of respective basal
5-HT release, MEAN (T6 h-T6 h 30): 95.56 % of respective basal
5-HT release, individual animals (T6 h-T6 h 30): 73.74 % of respective basal and 57.84 % of respective basal and 81.54 % of respective basal and 59.72 % of respective basal and 94.43 % of respective basal and 108.00 % of respective basal and 20.86 % of respective basal and 268.32 % of respective basal
5-HT release, MEAN (T-30 min-T0 (before administration)): 94.43 % of respective basal
5-HT release, MEAN (T-1 h 30-T-1 h (before administration)): 100.12 % of respective basal
5-HT release, MEAN (T-1 h-T-30 min (before administration)): 104.14 % of respective basal
serotonin levels, increase (not statistically significant) (at 2.5 h): 368%
serotonin levels, increase (not statistically significant) (from 4.5 h to 7 h): 350%
5-HT release, maximum increase observed (SON-117 0.1 mg/kg, at 2.5 h): 369%
levels of 5-HT compared to the citalopram treated group (significant) (SON-117 0.1 mg/kg, at 2.5 h, 4.5 and 5.5 h): higher
5-HT dialysate levels vs mean pre-administration value (SON-117 0.3 mg/kg IP): no statistically significant differences
levels of 5-HT compared to the citalopram treated group (significant) (SON-117 0.3 mg/kg, at 1 h): slightly lower
5-HT release (% of basal levels) measured in dialysates, MEAN (T0-T30 min): 100.79 % of basal levels
5-HT release (% of basal levels) measured in dialysates, MEAN (T30-T1 h): 122.25 % of basal levels
